Patent US5192791A, “Fused ring heterocycles and pharmaceutical compositions containing same” (Biofor, Ltd., priority 1990, dated 1993)

Experiments:
yeast-induced fever = test: Antipyretic Evaluation (yeast-induced fever in rats); format: in vivo, male Sprague-Dawley rats; conditions: 300 mg/kg, oral, 19 hours after yeast; temperature one hour after dosing
Protocol: Antipyretic: This activity was evaluated by creating a yeast-induced fever in rats according to a modified method of the procedure described by Loux et al in "Toxicology and Applied Pharmacology", Vol. 22: page 672 (1972). In this assay rats injected with yeast in distilled water were dosed with test compounds, aspirin (positive control) and a vehicle (negative control) and the observed differences in body temperature were analyzed statistically.
Antipyretic activity was evaluated using a modification of the test described by Loux et al, in Toxicology and Applied Pharmacology, 22:672 (1972), that is, yeast-induced fever in rats. Each test group consisted of ten male Sprague-Dawley rats (Charles River Laboratories), weighing 180-225 grams each. Eighteen hours prior to compound administration the rats were weighed and body temperatures were recorded. Food was removed with water available ad libitum. […]
Test compounds suspended in 0.25% methylcellulose (0.25% MC) or olive oil were administered orally by gavage nineteen hours following the yeast injection. Body temperatures were taken and recorded one hour after compound administration. […] The mean temperature of the compound-treated groups, positive control group (Aspirin) and negative control group (vehicle) were calculated at 18 hours and 20 hours. The data was analyzed statistically using a paired-samples Student's t-Test.

[1] = test system: Mycobacterium butyricum adjuvant arthritis, hind paw edema; test: Adjuvant Arthritis Assay: Developing (hind paw edema, rats); format: in vivo, female Lewis rats; conditions: 96 h, dosed once daily for 4 days in 0.25% methylcellulose, paw edema on fifth day
Protocol: Anti-Inflammatory: This activity was evaluated via a modification of the Adjuvant Arthritis Assay (AA) described by S. […] This assay measures the ability of the test compound to antagonize local edema, a characteristic of the inflammatory response. […] The left and right rear paws of female Lewis rats (Charles River Laboratories) weighing 160-180 grams each were measured by mercury displacement prior to injection (Day Zero). Adjuvant arthritis was induced in this rat colony by subcutaneous injection of Mycobacterium butyricum (0.75 mg in 0.1 ml light mineral oil, Fisher) using an automated Cornwall syringe. On days 11-15 post-adjuvant the injected animals with 0.25 to 0.75 ml. paw edema were selected and distributed evenly, according to edema size, into control and experimental groups of ten rats each. Vehicle control and drug treatments were assigned to the groups at random. The assay was performed using a variable dose level for each test compound per kilogram per day in 0.25% methylcellulose vehicle. All animals were dosed once daily for 4 days and on the fifth day both hind paw volumes were again measured using mercury displacement. The hind paw edema was determined for each rat by subtracting the hind paw volume measured on Day Zero from the hind paw volume measured on the fifth day of the study. Group means were determined and the drug effect was calculated as percent inhibition of the hind paw edema according to the following equation: [formula] […] The known anti-inflammatory NAPROXEN was also tested for comparison purposes.

[2] = test system: Mycobacterium butyricum adjuvant arthritis, hind paw edema; test: Adjuvant Arthritis Assay; Immunomodulatory; format: in vivo, Lewis female rats; conditions: 50 mg/kg, oral, Day 5 to 9; edema on Day 15
Protocol: Immunomodulatory: This activity was determined by using a Modified Adjuvant Assay procedure in which female rats were injected with Mycobacterium butyricum to induce hind paw edema. The test compounds were administered orally and the difference in volume between dosed and non-dosed paws was determined.
Lewis female rats were injected in the tail subcutaneously with Mycobacterium butyricum (0.75 mg in 0.1 ml light mineral oil, Fisher) on Day Zero. Prior to injection the volumes of the left and right rear paws were measured by mercury displacement. All rats were dosed orally with vehicle or test compounds on Day 5 to 9 inclusive. The volume of both hind paws were determined on Day 15 and the percent inhibitions were calculated based upon average edema on Day 15 relative to the edema mean in the control group.

## CC(=O)Oc1ccccc1C(=O)O [Aspirin, reference compound]
yeast-induced fever
  Change in Temperature, 18-20 Hour Period: -2.05 °C

## CC(C)(C)c1cc(N2CCCC2=O)cc(C(C)(C)C)c1O [Example 1, 1-(3,5-di-tert-butyl-4-hydroxyphenyl)pyrrolidin-2-one]
[1]
  ED50: 21 mg/kg
[2]
  % Inhibition: 39%
yeast-induced fever
  Change in Temperature, 18-20 Hour Period: -1.55 °C

## CC(C)(C)c1cc(N2CCCCC2=O)cc(C(C)(C)C)c1O [Example 2, 1-(3,5-di-tert-butyl-4-hydroxyphenyl)piperidin-2-one]
[1]
  ED50: 34 mg/kg

## COc1ccc2cc([C@H](C)C(=O)O)ccc2c1 [NAPROXEN, reference compound]
[1]
  ED50: 28 mg/kg
